ChEMBL document CHEMBL1137940, “Discovery of thiophene-2-carboxylic acids as potent inhibitors of HCV NS5B polymerase and HCV subgenomic RNA replication. Part 2: tertiary amides” (Bioorg Med Chem Lett, 2004)

Key:
Genome polyprotein = Genome polyprotein (Hepatitis C virus genotype 1a (isolate 1) (HCV), UniProt P26664); assay: In vitro inhibition of Hepatitis C polymerase.
Huh-7 [1] = assay: Tested for inhibition of replication of HCV RNA subgenomic replicons in Huh-7 cells by replicon assay; assay type: functional, cell-based, Homo sapiens
Huh-7 [2] = assay: Tested for cytotoxic effect to Huh-7 cells containing HCV RNA subgenomic replicons; assay type: functional; conditions: Homo sapiens
Huh-7 [3] = assay: Tested for inhibition of replication of HCV RNA subgenomic replicons in Huh-7 cells by real time PCR; assay type: functional, cell-based; conditions: Homo sapiens

Chain of Genome polyprotein (P26664 2421-3011 limits assumed): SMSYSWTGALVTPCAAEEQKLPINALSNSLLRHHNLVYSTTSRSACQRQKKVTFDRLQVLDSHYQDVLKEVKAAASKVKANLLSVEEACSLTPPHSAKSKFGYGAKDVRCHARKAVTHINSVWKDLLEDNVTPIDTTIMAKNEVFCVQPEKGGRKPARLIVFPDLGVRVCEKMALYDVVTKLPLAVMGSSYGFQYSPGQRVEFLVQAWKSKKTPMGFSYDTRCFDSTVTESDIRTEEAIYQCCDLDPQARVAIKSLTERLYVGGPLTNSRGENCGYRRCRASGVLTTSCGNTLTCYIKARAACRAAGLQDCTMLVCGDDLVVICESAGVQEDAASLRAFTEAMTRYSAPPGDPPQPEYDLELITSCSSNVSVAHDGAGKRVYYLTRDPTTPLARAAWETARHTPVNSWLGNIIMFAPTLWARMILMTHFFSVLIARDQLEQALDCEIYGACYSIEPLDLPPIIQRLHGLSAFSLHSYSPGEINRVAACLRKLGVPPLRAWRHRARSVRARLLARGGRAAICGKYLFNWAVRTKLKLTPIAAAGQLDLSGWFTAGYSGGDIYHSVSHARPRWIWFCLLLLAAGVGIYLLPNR

| SMILES | IC50 (Genome polyprotein) [µM] | IC50 (Huh-7 [1]; Homo sapiens, Huh-7) [µM] | CC50 (Huh-7 [2]) [µM] | IC50 (Huh-7 [3]) [µM] | IC50 (Huh-7 [1]; huh-7) [µM] |
| --- | --- | --- | --- | --- | --- |
| Cc1ccc(C(=O)N(C)c2cc(-c3ccccc3)sc2C(=O)O)cc1C | > 50 |  |  |  |  |
| Cc1ccc(S(=O)(=O)N(C)c2cc(-c3ccccc3)sc2C(=O)O)c(C)c1 | 5 | 35 | 115 |  |  |
| Cc1ccc(C(=O)N(C)c2cc(-c3ccccc3)sc2C(=O)O)c(C)c1 | 1.4 | 16 | 160 |  |  |
| Cc1ccc(S(=O)(=O)Nc2cc(-c3ccccc3)sc2C(=O)O)c(C)c1 |  | 5 | 57 |  |  |
| Cc1cccc(C(=O)N(C)c2cc(-c3ccccc3)sc2C(=O)O)c1 | > 50 | > 100 | > 200 |  |  |
| Cc1ccccc1C(=O)N(C)c1cc(-c2ccccc2)sc1C(=O)O | 21 |  |  |  |  |
| CN(C(=O)c1ccccc1)c1cc(-c2ccccc2)sc1C(=O)O | > 32 |  |  |  |  |
| Cc1ccc(C(=O)N(c2cc(-c3ccccc3)sc2C(=O)O)C(C)C)cc1 | 3 | 5 | > 200 |  |  |
| Cc1ccc(C(=O)Nc2cc(-c3ccccc3)sc2C(=O)O)cc1 |  | > 100 | 118 |  |  |
| CN(C(=O)c1ccc(C(F)(F)F)cc1)c1cc(-c2ccccc2)sc1C(=O)O | 34 | > 50 |  |  |  |
| CC(C)N(C(=O)C1CCCCC1)c1cc(-c2ccccc2)sc1C(=O)O | 9 | 15 | 69 |  |  |
| CCN(C(=O)c1ccc(C)cc1)c1cc(-c2ccccc2)sc1C(=O)O | 2 | 12 | 100 |  |  |
| CC(C)N(C(=O)c1ccc(Cl)cc1Cl)c1cc(-c2ccccc2)sc1C(=O)O | 1.2 | 8.9 | 62 |  |  |
| CCc1ccc(C(=O)N(C)c2cc(-c3ccccc3)sc2C(=O)O)cc1 | > 50 | > 100 |  |  |  |
| CN(C(=O)c1ccc(Cl)cc1)c1cc(-c2ccccc2)sc1C(=O)O | 1.2 | 19 | 88 |  |  |
| Cc1ccc(C(=O)N(C)c2cc(-c3ccccc3)sc2C(=O)O)cc1 | 2 | 22 | > 200 |  |  |
| CC1CCC(C(=O)N(c2cc(-c3ccccc3)sc2C(=O)O)C(C)C)CC1 (stereo in doubt; 16) | 1.5 |  | 123 | 0.3 | 0.6 |
| CC1CCC(C(=O)N(c2cc(-c3ccccc3)sc2C(=O)O)C(C)C)CC1 (stereo in doubt; 17) | 24 |  |  |  | > 50 |
